{"source": "patent US10251849B2", "about": "“Sublingual compositions including epinephrine nanoparticles” (NOVA SOUTHEASTERN UNIVERSITY, priority 2012, dated 2019)", "key": {"[1]": {"protocol": "Supernatant solution was withdrawn and filtered through 0.22 μm nylon syringe filters to be analyzed for the quantification of dissolved epinephrine.\nAnalysis and condition were performed according to USP 26th edition, 2003 “Epinephrine Injection Monograph.”"}, "[2]": {"test": "UV absorptivity of oxidative products of epinephrine at 310 nm", "assay_type": "physicochemical", "details": "controls, not stored, 4 mg/mL", "protocol": "The supernatant was visually inspected against white background for any discoloration (USP/NF. Official Monograph: Epinephrine Injection. 31/26 ed. Rockville, Md.: United States Pharmacopeial Convention, Inc.; 2008) and then filtered and diluted to make 4 mg/mL. […] The absorptivity of all samples and controls was calculated by dividing the absorbance by the product of the concentration of the drug (g/L) and the path length (cm) of the cell used to measure the absorbance (USP/NF. Physical Tests: Spectrophotometery and Light-Scattering (851). 31/26 ed. Rockville, Md.: United States Pharmacopeial Convention, Inc.; 2008).\nThe absorptivity of oxidative products of epinephrine in the tablets from each formulation at each storage condition and in controls was statistically compared by two-way ANOVA and Tukey-Kramer tests."}, "[3]": {"protocol": "Samples were prepared in triplicates for each concentration, n=3. All prepared samples were processed using LV-1 High Shear Fluid Processor “Microfluidizer” (Microfluidics, Newton, Mass.) equipped with G10Z reaction chamber under various pressures ranging from 15 to 30 KPsi for single or several passes. The microfluidizer-receiving coil was immersed in ice to reduce the heat produced during the process for heat-sensitive drugs. The particle size and potential of the produced nanosuspension were measured. The nanosuspension was centrifuged at 15,000 rpm and 15° C. for 30 minutes to collect the nanoparticles, and the solvent was then removed. The collected nanoparticles were completely dried by speed vacuum concentrator or lyophilization.\n(§1) Nanoparticle Characterization: The particle size distribution and zeta potential of the nanosuspension was measured before and after size reduction by volume and by intensity using Mastersizer (Malvern) and Zetasizer Nano-ZS90 (Malvern), respectively. The average of 3 measurements for each sample was reported.", "remark": "listed apart in the source"}, "[4]": {"details": "various concentrations", "protocol": "as §1"}}, "note": "Structures can show the parent of a compound that is named as a salt. Where two headings read alike, the source gives them in different places."}
{"smiles": "CNC[C@H](O)c1ccc(O)c(O)c1", "note": "[Epinephrine Base, epinephrine]", "values": [{"measurement": "Amount Dissolved", "setting": "[1]; solubility in water", "result": 53.37, "unit": "µg/mL"}]}
{"smiles": "CNC[C@H](O)c1ccc(O)c(O)c1", "note": "[epinephrine bitartrate, (−)-3,4-dihydroxy-α-[(methylamino)methyl]benzyl alcohol (+)-tartrate (1:1) salt]", "values": [{"measurement": "Absorptivity of Oxidative Products of Epinephrine (Mean ± SD)", "setting": "[2]", "result": "0.001 ± 0.000"}, {"measurement": "Amount Dissolved", "setting": "[1]; solubility in acetone", "result": 31.28, "unit": "µg/mL"}, {"measurement": "Amount Dissolved", "setting": "[1]; solubility in acetonitrile", "result": 15.46, "unit": "µg/mL"}, {"measurement": "Amount Dissolved", "setting": "[1]; solubility in chloroform", "result": 1.87, "unit": "µg/mL"}, {"measurement": "Amount Dissolved", "setting": "[1]; solubility in ethyl acetate", "result": 12.60, "unit": "µg/mL"}, {"measurement": "Amount Dissolved", "setting": "[1]; solubility in hexane", "result": 0.53, "unit": "µg/mL"}, {"measurement": "Amount Dissolved", "setting": "[1]; solubility in isopropyl alcohol", "result": 12.30, "unit": "µg/mL"}, {"measurement": "Amount Dissolved", "setting": "[1]; solubility in methanol", "result": 209.01, "unit": "µg/mL"}, {"measurement": "Amount Dissolved", "setting": "[1]; solubility in tetrahydrofuran (THF)", "result": 155.18, "unit": "µg/mL"}, {"measurement": "Mean ± SD particles size", "setting": "[3]; 0 passes, before processing, n = 6", "result": "131,800 ± 10500 nm"}, {"measurement": "polydispersity (pdi)", "setting": "[3]; 0.7 mg/ml, 1 pass at 30 KPsi", "result": "(0.257 + 0.060)"}, {"measurement": "polydispersity (pdi)", "setting": "[3]; 0.7 mg/ml, 2 passes at 30 KPsi", "result": "(0.119 ± 0.052)"}, {"measurement": "polydispersity (pdi)", "setting": "[3]; 0.7 mg/ml, 4 passes at 30 KPsi", "result": "(0.217 ± 0.035)"}, {"measurement": "polydispersity (pdi)", "setting": "[3]; 0.7 mg/ml, 5 passes at 30 KPsi", "result": "(0.170 ± 0.070)"}, {"measurement": "polydispersity (pdi)", "setting": "[3]; 0.7 mg/ml, 6 passes at 30 KPsi", "result": "(0.195 ± 0.067)"}, {"measurement": "polydispersity (pdi)", "setting": "[3]; 1.4 mg/ml, 1 pass at 30 KPsi", "result": "(0.239 + 0.044)"}, {"measurement": "polydispersity (pdi)", "setting": "[3]; 1.4 mg/ml, 2 passes at 30 KPsi", "result": "(0.158 ± 0.021)"}, {"measurement": "polydispersity (pdi)", "setting": "[3]; 1.4 mg/ml, 4 passes at 30 KPsi", "result": "(0.178 ± 0.039)"}, {"measurement": "polydispersity (pdi)", "setting": "[3]; 3.5 mg/ml, 1 pass at 30 KPsi", "result": "(0.335 + 0.112)"}, {"measurement": "polydispersity (pdi)", "setting": "[3]; 3.5 mg/ml, 2 passes at 30 KPsi", "result": "(0.576 ± 0.080)"}, {"measurement": "polydispersity (pdi)", "setting": "[3]; 4.5 mg/ml, 1 pass at 30 KPsi", "result": "(0.321 + 0.060)"}, {"measurement": "polydispersity (pdi)", "setting": "[3]; 4.5 mg/ml, 2 passes at 30 KPsi", "result": "(0.315 ± 0.055)"}, {"measurement": "particle size before size reduction", "setting": "[3]; as stated in summary text", "result": "150.7±5", "unit": "μm"}, {"measurement": "10th percentile (Dv0.1)", "setting": "[3]; before processing, n = 6", "result": "39.8 ± 3.0", "unit": "μm"}, {"measurement": "90th percentile (Dv0.9)", "setting": "[3]; before processing, n = 6", "result": "254.8 ± 20.1"}, {"measurement": "median (Dv0.5)", "setting": "[3]; before processing, n = 6", "result": "113.6 ± 9.1", "unit": "μm"}, {"measurement": "color of the fabricated nanosuspension", "setting": "[4]", "result": "no change in color"}]}
